Laboratory results: PubChem BioAssay AID1332 (Southern Research Institute, 2008)
≈ marks a conversion by molar mass, not a printed value.

Tested on: M. tuberculosis H37Rv growth inhibition
Test: Mycobacterium tuberculosis H37Rv growth inhibition, confirmatory dose response, cytotoxicity (AID 1332);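 also: bacteria incubated 7 days before adding Alamar blue readout reagent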

Row | Structure (SMILES) | IC90
1 | COc1ccc(C[C@H](N)C(=O)N[C@H]2[C@@H](O)[C@H](n3cnc4c(N(C)C)ncnc43)O[C@@H]2CO)cc1 | 1.75 µg/mL (≈ 3.71 µM)
2 | CCn1cc(C(=O)O)c(=O)c2cc(F)c(N3CCNCC3)cc21 | 0.81 µg/mL (≈ 2.54 µM)
3 | CN1CCCC(CC2c3ccccc3Sc3ccccc32)C1 (stereo not given) | 10.4 µg/mL (≈ 33.7 µM)
4 | O=C1CN(/N=C/c2ccc([N+](=O)[O-])o2)C(=O)N1 | 3.92 µg/mL (≈ 16.5 µM)
5 | CC(=O)O[C@H]1C[C@@]2(C)[C@@H](C[C@@H](O)[C@H]3[C@@]4(C)CC[C@@H](O)[C@@H](C)C4CC[C@@]32C)/C1=C(\CCC=C(C)C)C(=O)O (stereo not given in full) | 0.586 µg/mL (≈ 1.13 µM)
6 | Cc1cccc(C)c1NC(=O)CN1CCN(CCCC(c2ccc(F)cc2)c2ccc(F)cc2)CC1 | 5.27 µg/mL (≈ 10.7 µM)
7 | O=C1C=CC(=O)c2c1ccc1c2ccc2ccccc21 | 2.17 µg/mL (≈ 8.42 µM)
8 | CC(Cc1ccccc1)NCCC(c1ccccc1)c1ccccc1 (stereo not given) | 4.55 µg/mL (≈ 13.8 µM)
9 | O=c1[nH]c2ccccc2n1C1CCN(CCCC(c2ccc(F)cc2)c2ccc(F)cc2)CC1 | 2.34 µg/mL (≈ 5.06 µM)
10 | CC(C)N=c1cc2n(-c3ccc(Cl)cc3)c3ccccc3nc-2cc1Nc1ccc(Cl)cc1 | 0.04 µg/mL (≈ 0.0845 µM)
11 | Clc1ccc(C(Cn2ccnc2)OCc2csc3c(Cl)cccc23)c(Cl)c1 (stereo not given) | 3.41 µg/mL (≈ 7.8 µM)
12 | Cc1cc(N)c2ccccc2[n+]1CCCCCCCCCC[n+]1c(C)cc(N)c2ccccc21 | 1.78 µg/mL
13 | CC(C)N1CCN(c2ccc(OC[C@H]3CO[C@](Cn4cncn4)(c4ccc(Cl)cc4Cl)O3)cc2)CC1 | 7.54 µg/mL (≈ 14.2 µM)
14 | CN(C(=O)CN(CCO)CC(=O)N(C)C(C)(C)Cc1ccccc1)C(C)(C)Cc1ccccc1 | 15.6 µg/mL (≈ 33.4 µM)
15 | CC(=O)N1CCN(c2ccc(OC[C@H]3CO[C@](Cn4ccnc4)(c4ccc(Cl)cc4Cl)O3)cc2)CC1 | 2.49 µg/mL (≈ 4.69 µM)
16 | OCCN1CCN(CCCN2c3ccccc3Sc3ccc(Cl)cc32)CC1 | 11.7 µg/mL (≈ 28.9 µM)
17 | CCSc1ccc2c(c1)N(CCCN1CCN(C)CC1)c1ccccc1S2 | 6.34 µg/mL (≈ 15.9 µM)
18 | C=C(NC(=O)C(=C)NC(=O)c1csc(C2=N[C@H]3c4csc(n4)[C@H]4NC(=O)c5csc(n5)[C@H]([C@@](C)(O)[C@@H](C)O)NC(=O)[C@H]5CSC(=N5)/C(=C\C)NC(=O)[C@H]([C@@H](C)O)NC(=O)c5csc(n5)[C@]3(CC2)NC(=O)[C@H](C)NC(=O)C(=C)NC(=O)[C@H](C)NC(=O)[C@H](C(C)CC)N[C@@H]2C=Cc3c([C@H](C)O)cc(nc3[C@H]2O)C(=O)O[C@@H]4C)n1)C(N)=O (stereo not given in full) | 0.357 µg/mL (≈ 0.214 µM)
19 | CSc1ccc2c(c1)C(N1CCN(C)CC1)Cc1ccccc1S2 (stereo not given) | 4.56 µg/mL (≈ 12.8 µM)
20 | CS(=O)(=O)c1ccc([C@@H](O)[C@@H](CF)NC(=O)C(Cl)Cl)cc1 | 2.7 µg/mL (≈ 7.53 µM)
21 | CCCCN(CCCC)CCC(O)c1cc2c(Cl)cc(Cl)cc2c2cc(C(F)(F)F)ccc12 (stereo not given) | 1.15 µg/mL (≈ 2.3 µM)
22 | CN(C)[C@@H]1C(=O)C(C(N)=O)=C(O)[C@@]2(O)C(=O)C3=C(O)c4c(O)ccc(Cl)c4[C@@H](O)[C@H]3C[C@@H]12 | 12.6 µg/mL (≈ 27.1 µM)
23 | Nc1ccc(S(=O)(=O)Nc2cnc3ccccc3n2)cc1 | 12.7 µg/mL (≈ 42.3 µM)

Row | Structure (SMILES) | IC90
24 | CCCCc1oc2ccccc2c1C(=O)c1cc(I)c(OCCN(CC)CC)c(I)c1 | 6.3 µg/mL (≈ 9.76 µM)
25 | Cc1c(OCC(F)(F)F)ccnc1CS(=O)c1nc2ccccc2[nH]1 (stereo not given) | 10.1 µg/mL (≈ 27.5 µM)
26 | O=C1OCCN1/N=C/c1ccc([N+](=O)[O-])o1 | 5.4 µg/mL (≈ 24 µM)
27 | Cc1cc(NS(=O)(=O)c2ccc(N)cc2)no1 | 4.34 µg/mL (≈ 17.1 µM)
28 | Nc1ccc(S(=O)(=O)Nc2ccnn2-c2ccccc2)cc1 | 12.8 µg/mL (≈ 40.7 µM)
29 | CCCCCCCCNC(C)C(O)c1ccc(SC(C)C)cc1 (stereo not given) | 2.25 µg/mL (≈ 6.67 µM)
30 | COc1ccc(CCN2CCC(Nc3nc4ccccc4n3Cc3ccc(F)cc3)CC2)cc1 | 6.79 µg/mL (≈ 14.8 µM)
31 | CC[C@H]1OC(=O)[C@H](C)[C@@H](OC2C[C@@](C)(OC)[C@@H](O)[C@H](C)O2)[C@H](C)[C@@H](O[C@@H]2O[C@H](C)C[C@H](N(C)C)[C@H]2O)[C@](C)(O)C[C@@H](C)/C(=N\OCOCCOC)[C@H](C)[C@@H](O)[C@]1(C)O (stereo not given in full) | 11.5 µg/mL (≈ 13.7 µM)
32 | CCCCCCCCCCCCCCCC[N+](C)(C)CCN(Cc1ccc(OC)cc1)c1ncccn1 | 1.1 µg/mL
33 | Clc1ccc(CCC(Cn2ccnc2)Sc2c(Cl)cccc2Cl)cc1 (stereo not given) | 1.61 µg/mL (≈ 3.9 µM)
34 | CCN(CC)CCNc1ccc(CO)c2sc3ccccc3c(=O)c12 | 19.4 µg/mL (≈ 54.5 µM)
35 | CN[C@@H]1[C@@H](O)[C@@H](O[C@@H]2[C@@H](O)[C@H](O[C@H]3O[C@H]([C@@H](C)N)CC[C@H]3N)[C@@H](N)C[C@H]2N)OC[C@]1(C)O | 0.859 µg/mL (≈ 1.85 µM)
36 | CNCCCC12CCC(c3ccccc31)c1ccccc12 | 17.9 µg/mL (≈ 64.5 µM)
37 | N[C@@H]1CONC1=O | 1.05 µg/mL (≈ 10.3 µM)
38 | CSc1ccc2c(c1)N(CCC1CCCCN1C)c1ccccc1S2 (stereo not given) | 3.01 µg/mL (≈ 8.13 µM)
39 | NCC[C@H](O)C(=O)N[C@@H]1C[C@H](N)[C@@H](O[C@H]2O[C@H](CN)[C@@H](O)[C@H](O)[C@H]2O)[C@H](O)[C@H]1O[C@H]1O[C@H](CO)[C@@H](O)[C@H](N)[C@H]1O | 0.04 µg/mL (≈ 0.0683 µM)
40 | Cc1nnc(NS(=O)(=O)c2ccc(N)cc2)s1 | 2.6 µg/mL (≈ 9.61 µM)
41 | CN[C@@H]1[C@H](O[C@H]2[C@H](O[C@@H]3[C@@H](O)[C@H](O)[C@@H](N=C(N)N)[C@H](O)[C@H]3N=C(N)N)O[C@@H](C)[C@]2(O)C=O)O[C@@H](CO)[C@H](O)[C@H]1O | 1.11 µg/mL (≈ 1.92 µM)
42 | Fc1ccc(C(c2ccc(F)cc2)N2CCN(C/C=C/c3ccccc3)CC2)cc1 | 6.62 µg/mL (≈ 16.4 µM)
43 | Cc1c2ccncc2c(C)c2c1[nH]c1ccccc12 | 0.17 µg/mL (≈ 0.69 µM)
44 | COc1cc(NC(C)CCCN)c2ncccc2c1 (stereo not given) | 14.5 µg/mL (≈ 55.9 µM)
45 | Cc1cc(C(C)(C)CC(C)(C)C)ccc1OCCOCC[N+](C)(C)Cc1ccccc1 | 4.91 µg/mL
